Laboratory results reported in patent US20020086860A1, “[1,4]Diazepino [6,7,1-jk] carbazoles and derivatives” (American Home Products Corporation, priority 2000, published 2002).
Structures can show the parent of a compound that is named as a salt. Where two headings read alike, the source gives them in different places.

What was measured:
male Sprague-Dawley rats = test: Effects of Compounds on Feeding Behavior in Rats (food intake, 24 hr fast); assay type: in vivo; settings: Rattus norvegicus, ip, dose giving 50% reduction in food intake, read-out: ED50 (mg/kg), 5HT2C Food Intake in Rats
Description: Effects of Compounds on Feeding Behavior in Rats
Eight (8) male Sprague-Dawley rats weighing 150-180 g were separated into individual cages and acclimated to a powdered diet for 2 weeks. During this period and throughout the test procedure, the food cup and the animals were weighed daily. Following the acclimation period, animals were fasted for 24 hours and then injected with either vehicle or one of 4 doses of the test compound. Food intake was assessed at 2 and 24 hours following compound administration. Compounds to be evaluated were injected 1-2× per week until all animals had received all doses of the test compound. The order of doses were chosen using to a modified Latin Square design. Additional studies may be conducted in satieted rats at the start of the dark cycle. Compounds were injected i.p, s.c. or p.o. At the end of the study effects of the test compound on food intake was evaluated using a repeated measures ANOVA. Data were collected were 2 hour food intake (g). Data were subjected to one-way ANOVA with posthoc t-tests to assess group differences. Where appropriate, ED50 values were calculated.

human 5-HT2C receptor = target: T1, human 5-HT2C receptor (Homo sapiens, UniProt P28335); test: Stimulation of [3H] Inositol Monophosphate production by 5HT2C agonists in transfected CHO cells; settings: for Emax: CHO, read-out: 5HT2C % Emax (5HT, 100%)
T1 sequence (P28335 33-458): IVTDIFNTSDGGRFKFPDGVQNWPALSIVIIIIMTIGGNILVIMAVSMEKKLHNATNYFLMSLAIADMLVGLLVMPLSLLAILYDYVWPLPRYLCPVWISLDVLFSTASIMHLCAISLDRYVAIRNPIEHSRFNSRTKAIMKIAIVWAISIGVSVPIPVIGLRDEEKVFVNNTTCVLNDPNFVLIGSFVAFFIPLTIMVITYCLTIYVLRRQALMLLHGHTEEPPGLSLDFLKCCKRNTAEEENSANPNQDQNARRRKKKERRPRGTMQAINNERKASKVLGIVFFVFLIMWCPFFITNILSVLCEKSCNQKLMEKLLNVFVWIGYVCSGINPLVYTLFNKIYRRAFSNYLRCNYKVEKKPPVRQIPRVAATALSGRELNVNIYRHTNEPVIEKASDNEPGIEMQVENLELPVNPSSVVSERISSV
Description: One (1) ml of maintenance medium containing 1 μCi/ml myo-[^3H] inositol was added to each well. After 48 hours labeling, the cells were washed once with 0.5 ml DMEM containing 25 mM HEPES and 10 mM LiCl, then preincubated with the medium for 30 min (antagonists were included in this period if tested). At the end of the preincubation, the medium was removed, the cells were then incubated with test compounds (in presence of antagonists if needed) for 30 min. The reaction was terminated by removal of the incubation solution and addition of 0.5 ml ice-cold 5% PCA, followed by 15 to 30 min incubation on ice. 200 μl of 0.5 M Tes/1.5 M K2CO3 was added to each well to neutralize to pH 7, and plates were left on ice for another 15 to 30 min to precipitate all salts. The liquid and solid phases were separated by centrifugation.
A portion (350 μl) of the upper aqueous phase was applied to Dowex AG-1×8 (formate form, 100-200 mesh) columns. The columns were then washed stepwise with 10 ml of water and 10 ml of 25 mM ammonium formate to remove free myo-[^3H]inositol and deacylated phosphoinositol, respectively. Finally 10 ml of 0.2 M ammonium formate solution was applied to the columns to elute [^3H] inositol monophosphate ([^3H] IP1) directly into scintillation vials. Of this eluate, 1 ml was used to determine radioactivity by scintillation counting.
A 3-parameter logistic function is used to generate estimate of EC50/IC50.

[1] = target: T2, human 5-hydroxytryptamine2C (h5HT2C) receptor (Homo sapiens, UniProt P28335); test: 5HT2C Receptor Binding Test Procedure ([125I]DOI displacement, CHO cell membranes)
T2 construct: expressed in transfected cells; host or cells: CHO (Chinese Hamster Ovary) cells; membrane preparation
T2 sequence (P28335 33-458): T1 sequence (P28335 33-458)

[2] = test system: several animal species and humans; settings: Cowen et al. 1995; cited from earlier work
[3] = read-out: Ki value and 95% confidence interval (reference compounds)

Compound: c1cc2c3c(c1)C1CCCCC1N3CCNC2 (centres unmarked) (as salt: hydrochloride) [Example 2, 1,2,3,4,7b,8,9,10,11,11a-Decahydro-[1,4]diazepino[6,7,1-jk]carbazole]
- melting point: 265 to 269 °C

Compound: c1cc2c3c(c1)c1c(n3CCNC2)CCCC1 [Example 1, 1,2,3,4,8,9,10,11-Octahydro-[1,4]diazepino[6,5,4-jk]carbazole]
- ED50 (male Sprague-Dawley rats): 20.9 mg/kg
- EC50 (human 5-HT2C receptor): 426 nM
- Emax (human 5-HT2C receptor): 90%

Compound: c1cc2c3c(c1)C1CCCCC1N3CCNC2 (centres unmarked) [Example 2, 1,2,3,4,7b,8,9,10,11,11a-Decahydro-[1,4]diazepino[6,7,1-jk]carbazole]
- Ki [1]: 92 nM
- EC50 (human 5-HT2C receptor): 207 nM
- Emax (human 5-HT2C receptor): 70%

Compound: CC1(C)Cc2c(c3cccc4c3n2CCNC4)C(C)(C)C1 [Example 3, 8,8,10,10-Tetramethyl-1,2,3,4,8,9,10,11-octahydro[1,4]diazepino[6,7,1-jk]carbazole]
- Ki [1]: 73 nM

Compound: CC1(C)CCc2c(c3cccc4c3n2CCNC4)C1 [Example 4, 9,9,Dimethyl-1,2,3,4,8,9,10,11-octahydro[1,4]diazepino[6,7,1-jk]carbazole]
- Ki [1]: 243 nM

Compound: Clc1cc2c3c(c1)c1c(n3CCNC2)CCCC1 [Example 5, 6-Chloro-1,2,3,4,8,9,10,11-octahydro[1,4]diazepino[6,7,1-jk]cabazole]
- Ki [1]: 358 nM

Compound: CCN1CCn2c3c(c4cc(Cl)cc(c42)C1)CCCC3 [Example 9, 6-Chloro-3-ethyl-1,2,3,4,8,9,10,11-octahydro[1,4]diazepino[6,5,4-jk]carbazole]
- 5HT2C Affinity DOI/Agonist binding, inhibition @ 1 μM [1]: 55%

Compound: CN1CCN(C2=Nc3ccccc3Oc3ccc(Cl)cc32)CC1 [Loxapine]
- Ki [1, 3]: 33 nM

Compound: CSc1ccc2c(c1)C(N1CCN(C)CC1)Cc1ccccc1S2 (centres unmarked) [Methiothepin]
- Ki ([1]; [125I]DOI binding, h5HT2C in CHO membranes, 95% confidence interval in brackets, read-out: Ki value and 95% confidence interval (reference compounds)): 4.6 nM

Compound: CC[C@@H](CO)NC(=O)[C@@H]1C=C2c3cccc4c3c(cn4C)C[C@H]2N(C)C1 [Methysergide]
- Ki [1]: 6.3 nM

Compound: Cc1nc2sccn2c(=O)c1CCN1CCC(=C(c2ccc(F)cc2)c2ccc(F)cc2)CC1 [Ritanserin]
- Ki [1, 3]: 2 nM

Compound: COc1cc(CC(C)N)c(OC)cc1I (centres unmarked) [[^125I] DOI]
- Kd ([1]; read-out: dissociation constant, KD of [125I] DOI at the human serotonin 5HT2C receptor, saturation binding with increasing concentrations of [125I] DOI): 0.4 nM

Compound: Clc1cccc(N2CCNCC2)c1 [mCPP, meta-chlorophenylpiperazine]
- effect on food intake [2]: decreases food intake
